In patent US20060069132A1, “Azolecarboxamide herbicides” (priority 2004, published 2006):

Key:
[1] = test system: velvetleaf; test: Test B pre-/postemergence herbicide test; format: in vivo, Abutilon theophrasti
In short: (§1)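 Plants compared with untreated controls 13–15 days post-treatment and given a visual 0–100 injury score. Applications: preemergence to seeds; postemergence at 1- to 4-leaf (2–18 cm); paddy species flooded, 2-leaf stage. Vehicle non-phytotoxic, surfactant included.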

[2] = test system: Surinam grass; test: Test B pre-/postemergence herbicide test; format: in vivo, Urochloa decumbens
In short: as §1

[3] = test system: barnyardgrass; test: Test B flooded paddy test; format: in vivo, Echinochloa crus-galli; details: 1000 g ai/ha, scale 0 to 100 (0 no effect, 100 complete control)
In short: (§2)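 Scale 0–100: zero equals no visible effect, 100 complete control, judged by eye relative to controls. Timing: 13 to 15 days in greenhouse post-treatment. Growth stage at spraying: two leaves (paddy) or one to four leaves, 2–18 cm (postemergence).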

[4] = test system: pigweed; test: Test B pre-/postemergence herbicide test; format: in vivo, Amaranthus retroflexus
In short: as §1

[5] = test system: ducksalad; test: Test B flooded paddy test; format: in vivo, Heteranthera limosa; details: 1000 g ai/ha, scale 0 to 100 (0 no effect, 100 complete control)
In short: as §2

[6] = test system: wild oat; test: Test B postemergence herbicide test; format: in vivo, Avena fatua
In short: (§3)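 Each value is a visual 0–100 response rating taken against controls 13 to 15 days after treatment in the greenhouse. Plants received formulated chemical postemergence at the 1- to 4-leaf stage or, in flooded paddy, at the 2-leaf stage.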

[7] = test system: cocklebur; test: Test B pre-/postemergence herbicide test; format: in vivo, Xanthium strumarium
In short: (§4)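 Formulation: non-phytotoxic solvent mix with surfactant. Timing: preemergence on seed and postemergence on 2–18 cm plants, applied concurrently. Readout after 13–15 d greenhouse: visual 0–100 control rating against controls.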

[8] = test system: barnyardgrass; test: Test B pre-/postemergence herbicide test; format: in vivo, Echinochloa crus-galli
In short: as §4

[9] = test system: small flower umbrella sedge; test: Test B flooded paddy test; format: in vivo, Cyperus difformis; details: 1000 g ai/ha, scale 0 to 100 (0 no effect, 100 complete control)
In short: as §2

[10] = test system: rice; test: Test B flooded paddy test; format: in vivo, Oryza sativa; details: 1000 g ai/ha, scale 0 to 100 (0 no effect, 100 complete control)
In short: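 Formulated test chemicals went onto postemergence plants measuring 2 to 18 cm, at one to four leaves. For the paddy assay, species had reached two leaves. Scoring took place 13–15 days later by eye, relative to untreated plants, using 0 for no effect up to 100 for full control.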

[11] = test system: giant foxtail; test: Test B pre-/postemergence herbicide test; format: in vivo, Setaria faberi
In short: as §1

[12] = test system: morningglory; test: Test B pre-/postemergence herbicide test; format: in vivo, Ipomoea coccinea
In short: as §4

[13] = test system: wheat; test: Test B postemergence herbicide test; format: in vivo, Triticum aestivum; design: key to Wheat plant response rating: 0 = no effect, 100 = complete control
In short: as §3

[14] = test system: lambsquarters; test: Test B pre-/postemergence herbicide test; format: in vivo, Chenopodium album
In short: as §1

[15] = test system: large crabgrass; test: Test B pre-/postemergence herbicide test; format: in vivo, Digitaria sanguinalis
In short: as §1

[16] = Postemergence, 500 g ai/ha; visual rating after 13 to 15 days, scale 0 (no effect) to 100 (complete control)
[17] = postemergence, 125 g ai/ha; visual rating, scale 0 (no effect) to 100 (complete control)
[18] = preemergence, 125 g ai/ha; 0 to 100 scale, 0 is no effect, 100 is complete control
[19] = Postemergence, 500 g ai/ha, visual rating after 13 to 15 days, scale 0 (no effect) to 100 (complete control)
[20] = Preemergence, 500 g ai/ha, scale 0 to 100
[21] = postemergence, 125 g ai/ha, visual rating, scale 0 (no effect) to 100 (complete control)
[22] = preemergence, 125 g ai/ha, 0 to 100 scale, 0 is no effect, 100 is complete control
[23] = 125 g ai/ha; 0 = no effect, 100 = complete control; preemergence
[24] = 500 g ai/ha; visual rating, 0 = no effect, 100 = complete control; preemergence
[25] = postemergence, 500 g ai/ha; scale 0 to 100, 0 is no effect, 100 is complete control
[26] = 125 g ai/ha, 0 = no effect, 100 = complete control, preemergence
[27] = 500 g ai/ha, visual rating, 0 = no effect, 100 = complete control, preemergence
[28] = postemergence, 500 g ai/ha, scale 0 to 100, 0 is no effect, 100 is complete control
[29] = 125 g ai/ha; visual rating, scale 0 (no effect) to 100 (complete control); postemergence
[30] = 125 g ai/ha, visual rating, scale 0 (no effect) to 100 (complete control), postemergence

CCn1nc(C(C)(C)C)cc1C(=O)Nc1cccc(C(=O)NOC)c1 [Compound 67]
Plant response rating, Velvetleaf [1, 16]: 10 | Velvetleaf plant response rating [1, 17]: 10 | Plant response rating, Velvetleaf [1, 18]: 0 | Plant response rating, Surinam Grass [2, 16]: 10 | Surinam Grass plant response rating [2, 17]: 10 | Plant response rating, Surinam Grass [2, 18]: 0 | Barnyardgrass plant response rating ([3]; visual rating, 13 to 15 days): 60 | Plant response rating, Pigweed [4, 16]: 20 | Pigweed plant response rating [4, 17]: 0 | Plant response rating, Pigweed [4, 18]: 0 | Ducksalad plant response rating ([5]; visual rating, 13 to 15 days): 80 | Plant response rating, Oat, Wild [6, 16]: 30 | Oat, Wild plant response rating [6, 17]: 10 | Plant response rating, Cocklebur [7, 19]: 70 | Cocklebur plant response rating [7, 20]: 0 | Cocklebur plant response rating [7, 21]: 0 | Plant response rating, Cocklebur [7, 22]: 0 | Plant response rating, Barnyardgrass [8, 19]: 10 | Barnyardgrass plant response rating [8, 20]: 80 | Barnyardgrass plant response rating [8, 21]: 10 | Plant response rating, Barnyardgrass [8, 22]: 0 | Sedge, Umbrella plant response rating ([9]; visual rating, 13 to 15 days): 80 | Rice plant response rating ([10]; visual rating, 13 to 15 days): 60 | Plant response rating, Foxtail, Giant [11, 19]: 10 | Foxtail, Giant plant response rating [11, 20]: 10 | Foxtail, Giant plant response rating [11, 21]: 10 | Plant response rating, Foxtail, Giant [11, 22]: 0 | Plant response rating, Morningglory [12, 16]: 10 | Morningglory plant response rating [12, 17]: 0 | Plant response rating, Morningglory [12, 18]: 0 | Plant response rating, Wheat [13, 16]: 10 | Wheat plant response rating [13, 17]: 10 | Plant response rating, Lambsquarters [14, 16]: 60 | Lambsquarters plant response rating [14, 17]: 40 | Plant response rating, Lambsquarters [14, 18]: 0 | Plant response rating, Crabgrass, Large [15, 19]: 10 | Crabgrass, Large plant response rating [15, 20]: 20 | Crabgrass, Large plant response rating [15, 21]: 10 | Plant response rating, Crabgrass, Large [15, 22]: 0

CCn1nc(C(C)(C)C)cc1C(=O)Nc1cccc(C(=O)N2CC=CC2)c1 [Compound 286]
Velvetleaf plant response rating (0 to 100 scale) [1, 23]: 0 | Plant response rating, Velvetleaf [1, 24]: 60 | Velvetleaf plant response rating [1, 17]: 10 | Velvetleaf plant response rating [1, 25]: 60 | Surinam Grass plant response rating (0 to 100 scale) [2, 23]: 10 | Plant response rating, Surinam Grass [2, 24]: 60 | Surinam Grass plant response rating [2, 17]: 10 | Surinam Grass plant response rating [2, 25]: 20 | Barnyardgrass plant response rating [3]: 90 | Pigweed plant response rating (0 to 100 scale) [4, 23]: 100 | Plant response rating, Pigweed [4, 24]: 100 | Pigweed plant response rating [4, 17]: 60 | Pigweed plant response rating [4, 25]: 100 | Ducksalad plant response rating [5]: 90 | Oat, Wild plant response rating [6, 17]: 30 | Oat, Wild plant response rating [6, 25]: 40 | Cocklebur plant response rating (0 to 100 scale) [7, 26]: 0 | Plant response rating, Cocklebur [7, 27]: 0 | Cocklebur plant response rating [7, 21]: 10 | Cocklebur plant response rating [7, 28]: 20 | Barnyardgrass plant response rating (0 to 100 scale) [8, 26]: 30 | Plant response rating, Barnyardgrass [8, 27]: 90 | Barnyardgrass plant response rating [8, 21]: 0 | Barnyardgrass plant response rating [8, 28]: 0 | Sedge, Umbrella plant response rating [9]: 80 | Rice plant response rating [10]: 70 | Foxtail, Giant plant response rating (0 to 100 scale) [11, 26]: 10 | Plant response rating, Foxtail, Giant [11, 27]: 90 | Foxtail, Giant plant response rating [11, 21]: 20 | Foxtail, Giant plant response rating [11, 28]: 50 | Morningglory plant response rating (0 to 100 scale) [12, 23]: 0 | Plant response rating, Morningglory [12, 24]: 0 | Morningglory plant response rating [12, 17]: 0 | Morningglory plant response rating [12, 25]: 0 | Wheat plant response rating [13, 17]: 20 | Wheat plant response rating [13, 25]: 30 | Lambsquarters plant response rating (0 to 100 scale) [14, 23]: 100 | Plant response rating, Lambsquarters [14, 24]: 100 | Lambsquarters plant response rating [14, 17]: 10 | Lambsquarters plant response rating [14, 25]: 70 | Crabgrass, Large plant response rating (0 to 100 scale) [15, 26]: 0 | Plant response rating, Crabgrass, Large [15, 27]: 100 | Crabgrass, Large plant response rating [15, 21]: 0 | Crabgrass, Large plant response rating [15, 28]: 10

CCn1nc(C(C)(C)C)cc1C(=O)Nc1cncc(C(=O)N(C)C)n1 [Compound 287]
Velvetleaf plant response rating [1, 29]: 0 | Plant response rating, Velvetleaf [1, 24]: 100 | Velvetleaf plant response rating [1, 25]: 60 | Surinam Grass plant response rating (0 to 100 scale) [2, 23]: 50 | Surinam Grass plant response rating [2, 29]: 0 | Plant response rating, Surinam Grass [2, 24]: 80 | Surinam Grass plant response rating [2, 25]: 10 | Barnyardgrass plant response rating [3]: 80 | Pigweed plant response rating (0 to 100 scale) [4, 23]: 90 | Pigweed plant response rating [4, 29]: 20 | Plant response rating, Pigweed [4, 24]: 100 | Pigweed plant response rating [4, 25]: 30 | Ducksalad plant response rating [5]: 80 | Oat, Wild plant response rating [6, 29]: 20 | Oat, Wild plant response rating [6, 25]: 40 | Cocklebur plant response rating (0 to 100 scale) [7, 26]: 0 | Cocklebur plant response rating [7, 30]: 10 | Plant response rating, Cocklebur [7, 27]: 60 | Cocklebur plant response rating [7, 28]: 10 | Barnyardgrass plant response rating (0 to 100 scale) [8, 26]: 80 | Barnyardgrass plant response rating [8, 30]: 0 | Plant response rating, Barnyardgrass [8, 27]: 100 | Barnyardgrass plant response rating [8, 28]: 20 | Sedge, Umbrella plant response rating [9]: 80 | Rice plant response rating [10]: 70 | Foxtail, Giant plant response rating (0 to 100 scale) [11, 26]: 10 | Foxtail, Giant plant response rating [11, 30]: 20 | Plant response rating, Foxtail, Giant [11, 27]: 90 | Foxtail, Giant plant response rating [11, 28]: 80 | Morningglory plant response rating (0 to 100 scale) [12, 23]: 0 | Morningglory plant response rating [12, 29]: 0 | Plant response rating, Morningglory [12, 24]: 10 | Morningglory plant response rating [12, 25]: 20 | Wheat plant response rating [13, 29]: 10 | Wheat plant response rating [13, 25]: 30 | Lambsquarters plant response rating (0 to 100 scale) [14, 23]: 100 | Lambsquarters plant response rating [14, 29]: 10 | Plant response rating, Lambsquarters [14, 24]: 100 | Lambsquarters plant response rating [14, 25]: 20 | Crabgrass, Large plant response rating (0 to 100 scale) [15, 26]: 70 | Crabgrass, Large plant response rating [15, 30]: 0 | Plant response rating, Crabgrass, Large [15, 27]: 100 | Crabgrass, Large plant response rating [15, 28]: 0
